Test results reported in patent US10300226B2, “Rescue inhaler” (priority 2015, dated 2019).
Several values for one entry are separate records, joined by “and”; a condition that tells them apart may be missing. Identical values can stand only once.

Key:
[1] = cited from earlier work; for density: 25 degrees Celsius (dry air: no temperature given); for gas density: standard temperature and atmospheric pressure, gram molecular weight/22.4
[2] = density of reference gases and prior-art heliox; type: physicochemical

| SMILES | density [1] [kg/m^3] | gas density [1] | density of oxygen ([2]; 24 degree Celsius and 742 torr, d=molar mass x p/RT) [g/L] | density of oxygen (D=P/RT) ([2]; T 273K, P 130000) [g/L] |
| --- | --- | --- | --- | --- |
| N#N [Example N2, nitrogen] | 1.2506 | 1.25 g/L |  |  |
| O=O [oxygen] | 1.429 | 1.428 g/L | 1.28 | 1.79 |
| [He] [Helium] | 0.1787 | 0.1785 g/L and 0.178 g/L |  |  |
